According to ChEMBL document CHEMBL4507258 (2021):

How the values were obtained:
[1] = molecular target: Cyclin-dependent kinase 13 (Homo sapiens) (UniProt Q14004); settings: Compound concentration 1000.0 nM
[2] = molecular target: Glycogen synthase kinase-3 alpha (Homo sapiens) (UniProt P49840); settings: Compound concentration 1000.0 nM
[3] = system: Epidermal growth factor receptor (Homo sapiens), P00533 [UNDEFINED MUTATION]; settings: Compound concentration 1000.0 nM
[4] = molecular target: Cyclin-dependent kinase 14 (Homo sapiens) (UniProt O94921); settings: Compound concentration 1000.0 nM
[5] = molecular target: Cyclin-dependent kinase 16 (Homo sapiens) (UniProt Q00536); settings: Compound concentration 1000.0 nM
[6] = molecular target: Tyrosine-protein kinase ABL1 (Homo sapiens) (UniProt P00519); settings: Compound concentration 1000.0 nM
[7] = molecular target: Serine/threonine-protein kinase RIO1 (Homo sapiens) (UniProt Q9BRS2); settings: Compound concentration 1000.0 nM
[8] = molecular target: 5-hydroxytryptamine receptor 1B (Homo sapiens) (UniProt P28222); settings: Compound concentration 10.0 uM
[9] = molecular target: Mitogen-activated protein kinase kinase kinase 20 (Homo sapiens) (UniProt Q9NYL2); settings: Compound concentration 1000.0 nM
[10] = molecular target: Serine/threonine-protein kinase SBK1 (Homo sapiens) (UniProt Q52WX2); settings: Compound concentration 1000.0 nM
[11] = molecular target: Dual specificity protein kinase TTK (Homo sapiens) (UniProt P33981); settings: Compound concentration 1000.0 nM
[12] = molecular target: Ribosomal protein S6 kinase alpha-2 (Homo sapiens) (UniProt Q15349); settings: Compound concentration 1000.0 nM
[13] = molecular target: Receptor tyrosine-protein kinase erbB-4 (Homo sapiens) (UniProt Q15303); settings: Compound concentration 1000.0 nM
[14] = molecular target: Cyclin-dependent kinase 4 (Homo sapiens) (UniProt P11802); settings: Compound concentration 1000.0 nM
[15] = molecular target: Serine/threonine-protein kinase TAO1 (Homo sapiens) (UniProt Q7L7X3); settings: Compound concentration 1000.0 nM
[16] = molecular target: Serine/threonine-protein kinase STK11 (Homo sapiens) (UniProt Q15831); settings: Compound concentration 1000.0 nM
[17] = molecular target: NT-3 growth factor receptor (Homo sapiens) (UniProt Q16288); settings: Compound concentration 1000.0 nM
[18] = molecular target: Tyrosine-protein kinase Tec (Homo sapiens) (UniProt P42680); settings: Compound concentration 1000.0 nM
[19] = molecular target: 5-hydroxytryptamine receptor 5A (Homo sapiens) (UniProt P47898); settings: Compound concentration 10.0 uM
[20] = molecular target: Serine/threonine-protein kinase MRCK beta (Homo sapiens) (UniProt Q9Y5S2); settings: Compound concentration 1000.0 nM
[21] = molecular target: Mitogen-activated protein kinase kinase kinase 11 (Homo sapiens) (UniProt Q16584); settings: Compound concentration 1000.0 nM
[22] = molecular target: Mitotic checkpoint serine/threonine-protein kinase BUB1 (Homo sapiens) (UniProt O43683); settings: Compound concentration 1000.0 nM
[23] = molecular target: Cyclin-dependent kinase 19 (Homo sapiens) (UniProt Q9BWU1); settings: Compound concentration 1000.0 nM
[24] = molecular target: Dual specificity mitogen-activated protein kinase kinase 1 (Homo sapiens) (UniProt Q02750); settings: Compound concentration 1000.0 nM
[25] = molecular target: Mitogen-activated protein kinase kinase kinase 13 (Homo sapiens) (UniProt O43283); settings: Compound concentration 1000.0 nM
[26] = molecular target: Vascular endothelial growth factor receptor 3 (Homo sapiens) (UniProt P35916); settings: Compound concentration 1000.0 nM
[27] = molecular target: LIM domain kinase 2 (Homo sapiens) (UniProt P53671); settings: Compound concentration 1000.0 nM
[28] = molecular target: Receptor-interacting serine/threonine-protein kinase 4 (Homo sapiens) (UniProt P57078); settings: Compound concentration 1000.0 nM
[29] = molecular target: Serine/threonine-protein kinase N2 (Homo sapiens) (UniProt Q16513); settings: Compound concentration 1000.0 nM
[30] = molecular target: Non-receptor tyrosine-protein kinase TYK2 (Homo sapiens) (UniProt P29597); settings: Compound concentration 1000.0 nM
[31] = molecular target: Serine/threonine-protein kinase tousled-like 1 (Homo sapiens) (UniProt Q9UKI8); settings: Compound concentration 1000.0 nM
[32] = molecular target: RAF proto-oncogene serine/threonine-protein kinase (Homo sapiens) (UniProt P04049); settings: Compound concentration 1000.0 nM
[33] = system: Mast/stem cell growth factor receptor Kit (Homo sapiens), P10721 [V559D]; settings: Compound concentration 1000.0 nM
[34] = molecular target: Calcium/calmodulin-dependent protein kinase type 1D (Homo sapiens) (UniProt Q8IU85); settings: Compound concentration 1000.0 nM
[35] = molecular target: Sodium-dependent dopamine transporter (Homo sapiens) (UniProt Q01959); settings: Compound concentration 10.0 uM
[36] = molecular target: Mitogen-activated protein kinase 10 (Homo sapiens) (UniProt P53779); settings: Compound concentration 1000.0 nM
[37] = molecular target: STE20/SPS1-related proline-alanine-rich protein kinase (Homo sapiens) (UniProt Q9UEW8); settings: Compound concentration 1000.0 nM
[38] = molecular target: Serine/threonine-protein kinase tousled-like 2 (Homo sapiens) (UniProt Q86UE8); settings: Compound concentration 1000.0 nM
[39] = molecular target: Serine/threonine-protein kinase haspin (Homo sapiens) (UniProt Q8TF76); settings: Compound concentration 1000.0 nM
[40] = molecular target: Serine/threonine-protein kinase TAO2 (Homo sapiens) (UniProt Q9UL54); settings: Compound concentration 1000.0 nM
[41] = molecular target: Dual specificity tyrosine-phosphorylation-regulated kinase 2 (Homo sapiens) (UniProt Q92630); settings: Compound concentration 1000.0 nM
[42] = molecular target: Mitogen-activated protein kinase 6 (Homo sapiens) (UniProt Q16659); settings: Compound concentration 1000.0 nM
[43] = system: eIF-2-alpha kinase GCN2 (Homo sapiens), Q9P2K8 [S808G]; settings: Compound concentration 1000.0 nM
[44] = molecular target: Death-associated protein kinase 1 (Homo sapiens) (UniProt P53355); settings: Compound concentration 1000.0 nM
[45] = molecular target: Serine/threonine-protein kinase pim-3 (Homo sapiens) (UniProt Q86V86); settings: Compound concentration 1000.0 nM

Sequence of Cyclin-dependent kinase 16 (Homo sapiens) (Q00536 whole entry): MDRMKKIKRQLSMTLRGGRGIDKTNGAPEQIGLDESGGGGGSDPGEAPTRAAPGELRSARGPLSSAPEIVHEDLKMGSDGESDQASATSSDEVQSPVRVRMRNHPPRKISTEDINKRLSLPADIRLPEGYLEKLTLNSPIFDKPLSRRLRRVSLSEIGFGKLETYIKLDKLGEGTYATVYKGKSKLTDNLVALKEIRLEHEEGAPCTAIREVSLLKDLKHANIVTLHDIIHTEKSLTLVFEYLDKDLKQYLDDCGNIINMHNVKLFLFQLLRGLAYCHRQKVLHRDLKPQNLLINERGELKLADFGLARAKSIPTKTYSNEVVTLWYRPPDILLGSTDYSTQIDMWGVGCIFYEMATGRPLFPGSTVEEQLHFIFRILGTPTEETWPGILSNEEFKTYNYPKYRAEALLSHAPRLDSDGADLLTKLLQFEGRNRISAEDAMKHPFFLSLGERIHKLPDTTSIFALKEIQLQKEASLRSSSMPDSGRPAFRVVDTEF
Sequence of Serine/threonine-protein kinase TAO1 (Homo sapiens) (Q7L7X3 whole entry): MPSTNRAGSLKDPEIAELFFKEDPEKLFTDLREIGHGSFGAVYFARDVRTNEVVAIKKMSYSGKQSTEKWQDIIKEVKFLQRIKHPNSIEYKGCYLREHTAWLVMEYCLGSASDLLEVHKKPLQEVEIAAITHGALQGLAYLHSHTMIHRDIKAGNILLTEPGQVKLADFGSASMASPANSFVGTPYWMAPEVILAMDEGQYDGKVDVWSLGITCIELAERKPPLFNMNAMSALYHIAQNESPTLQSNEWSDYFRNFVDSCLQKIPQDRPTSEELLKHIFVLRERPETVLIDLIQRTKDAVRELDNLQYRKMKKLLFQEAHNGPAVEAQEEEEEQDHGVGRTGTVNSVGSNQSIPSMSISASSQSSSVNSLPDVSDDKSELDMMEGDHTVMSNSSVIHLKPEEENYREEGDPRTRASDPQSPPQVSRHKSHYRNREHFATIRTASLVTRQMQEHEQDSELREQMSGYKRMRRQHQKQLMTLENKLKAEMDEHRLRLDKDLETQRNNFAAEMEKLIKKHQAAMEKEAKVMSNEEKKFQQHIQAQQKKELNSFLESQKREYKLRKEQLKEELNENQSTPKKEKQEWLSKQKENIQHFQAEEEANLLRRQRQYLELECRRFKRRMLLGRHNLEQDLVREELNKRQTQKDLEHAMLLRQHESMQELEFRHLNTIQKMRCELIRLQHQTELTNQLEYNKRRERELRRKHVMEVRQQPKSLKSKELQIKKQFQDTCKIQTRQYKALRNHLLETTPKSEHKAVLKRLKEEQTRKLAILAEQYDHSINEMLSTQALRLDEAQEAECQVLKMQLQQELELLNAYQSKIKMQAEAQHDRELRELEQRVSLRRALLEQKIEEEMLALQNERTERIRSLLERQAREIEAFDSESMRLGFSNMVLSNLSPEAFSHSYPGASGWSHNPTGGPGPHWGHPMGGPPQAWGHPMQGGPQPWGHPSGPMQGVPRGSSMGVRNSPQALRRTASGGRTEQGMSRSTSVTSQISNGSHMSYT
Sequence of Non-receptor tyrosine-protein kinase TYK2 (Homo sapiens) (P29597 whole entry): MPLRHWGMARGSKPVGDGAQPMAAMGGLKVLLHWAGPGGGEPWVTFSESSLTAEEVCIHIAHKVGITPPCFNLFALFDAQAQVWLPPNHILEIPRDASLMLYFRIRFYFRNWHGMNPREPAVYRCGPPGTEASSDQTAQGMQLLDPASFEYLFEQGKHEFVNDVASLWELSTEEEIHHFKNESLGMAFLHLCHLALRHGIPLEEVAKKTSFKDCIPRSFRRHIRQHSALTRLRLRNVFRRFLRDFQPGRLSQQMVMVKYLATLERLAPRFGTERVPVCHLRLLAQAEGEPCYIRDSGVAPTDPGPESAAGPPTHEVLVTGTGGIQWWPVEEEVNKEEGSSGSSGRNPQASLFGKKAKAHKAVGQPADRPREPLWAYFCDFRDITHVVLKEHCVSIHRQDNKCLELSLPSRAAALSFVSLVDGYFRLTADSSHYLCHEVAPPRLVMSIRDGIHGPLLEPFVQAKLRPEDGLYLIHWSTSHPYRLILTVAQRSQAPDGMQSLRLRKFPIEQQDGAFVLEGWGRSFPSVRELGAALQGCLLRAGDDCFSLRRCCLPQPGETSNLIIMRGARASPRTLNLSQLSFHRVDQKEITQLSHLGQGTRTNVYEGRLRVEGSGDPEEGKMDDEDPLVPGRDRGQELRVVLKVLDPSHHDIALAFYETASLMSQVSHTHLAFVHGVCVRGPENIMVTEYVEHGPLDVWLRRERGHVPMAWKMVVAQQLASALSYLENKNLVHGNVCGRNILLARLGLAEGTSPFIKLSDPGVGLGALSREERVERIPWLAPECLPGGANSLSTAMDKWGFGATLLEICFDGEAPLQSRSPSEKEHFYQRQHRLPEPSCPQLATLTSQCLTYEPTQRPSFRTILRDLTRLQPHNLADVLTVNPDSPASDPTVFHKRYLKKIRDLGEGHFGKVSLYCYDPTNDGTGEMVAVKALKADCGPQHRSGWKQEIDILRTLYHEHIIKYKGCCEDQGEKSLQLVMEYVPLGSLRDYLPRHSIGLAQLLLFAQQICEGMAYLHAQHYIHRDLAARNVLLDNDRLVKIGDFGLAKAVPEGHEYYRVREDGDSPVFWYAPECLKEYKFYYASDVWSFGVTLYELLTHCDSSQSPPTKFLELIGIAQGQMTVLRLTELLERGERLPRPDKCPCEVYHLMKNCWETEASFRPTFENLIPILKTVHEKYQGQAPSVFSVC
Sequence of Serine/threonine-protein kinase RIO1 (Homo sapiens) (Q9BRS2 whole entry): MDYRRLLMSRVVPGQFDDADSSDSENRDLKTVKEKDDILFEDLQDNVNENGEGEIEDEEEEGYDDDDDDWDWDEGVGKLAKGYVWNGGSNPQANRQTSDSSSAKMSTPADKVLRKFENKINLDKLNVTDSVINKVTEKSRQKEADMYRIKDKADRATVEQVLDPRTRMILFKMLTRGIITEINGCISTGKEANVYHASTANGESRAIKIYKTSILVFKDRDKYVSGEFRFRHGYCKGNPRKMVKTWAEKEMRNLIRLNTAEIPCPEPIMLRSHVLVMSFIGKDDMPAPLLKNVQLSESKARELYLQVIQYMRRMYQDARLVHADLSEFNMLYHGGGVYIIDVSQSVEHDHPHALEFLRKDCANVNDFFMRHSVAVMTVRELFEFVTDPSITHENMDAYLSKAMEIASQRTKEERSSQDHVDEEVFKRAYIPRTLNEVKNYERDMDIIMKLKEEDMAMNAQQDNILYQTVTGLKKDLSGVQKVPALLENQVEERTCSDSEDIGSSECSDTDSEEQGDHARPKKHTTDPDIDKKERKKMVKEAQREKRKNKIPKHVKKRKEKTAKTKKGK
Sequence of Sodium-dependent dopamine transporter (Homo sapiens) (Q01959 whole entry): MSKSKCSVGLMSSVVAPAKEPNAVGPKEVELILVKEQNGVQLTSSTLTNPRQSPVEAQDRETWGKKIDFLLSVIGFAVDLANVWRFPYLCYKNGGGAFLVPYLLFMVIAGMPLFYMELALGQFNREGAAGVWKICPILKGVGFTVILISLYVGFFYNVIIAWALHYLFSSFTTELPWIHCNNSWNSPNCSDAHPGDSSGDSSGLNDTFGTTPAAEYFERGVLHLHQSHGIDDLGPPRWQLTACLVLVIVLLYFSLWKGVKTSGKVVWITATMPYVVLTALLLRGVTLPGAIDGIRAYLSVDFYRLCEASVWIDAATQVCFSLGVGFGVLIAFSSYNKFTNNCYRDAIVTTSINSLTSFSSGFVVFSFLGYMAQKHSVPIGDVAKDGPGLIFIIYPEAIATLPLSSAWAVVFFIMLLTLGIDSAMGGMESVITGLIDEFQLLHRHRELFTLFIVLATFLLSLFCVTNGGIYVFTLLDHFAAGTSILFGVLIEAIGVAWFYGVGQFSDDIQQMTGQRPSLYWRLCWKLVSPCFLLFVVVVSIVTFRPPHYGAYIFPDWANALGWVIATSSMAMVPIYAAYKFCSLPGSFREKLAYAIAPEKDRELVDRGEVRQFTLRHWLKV
Sequence of Tyrosine-protein kinase Tec (Homo sapiens) (P42680 whole entry): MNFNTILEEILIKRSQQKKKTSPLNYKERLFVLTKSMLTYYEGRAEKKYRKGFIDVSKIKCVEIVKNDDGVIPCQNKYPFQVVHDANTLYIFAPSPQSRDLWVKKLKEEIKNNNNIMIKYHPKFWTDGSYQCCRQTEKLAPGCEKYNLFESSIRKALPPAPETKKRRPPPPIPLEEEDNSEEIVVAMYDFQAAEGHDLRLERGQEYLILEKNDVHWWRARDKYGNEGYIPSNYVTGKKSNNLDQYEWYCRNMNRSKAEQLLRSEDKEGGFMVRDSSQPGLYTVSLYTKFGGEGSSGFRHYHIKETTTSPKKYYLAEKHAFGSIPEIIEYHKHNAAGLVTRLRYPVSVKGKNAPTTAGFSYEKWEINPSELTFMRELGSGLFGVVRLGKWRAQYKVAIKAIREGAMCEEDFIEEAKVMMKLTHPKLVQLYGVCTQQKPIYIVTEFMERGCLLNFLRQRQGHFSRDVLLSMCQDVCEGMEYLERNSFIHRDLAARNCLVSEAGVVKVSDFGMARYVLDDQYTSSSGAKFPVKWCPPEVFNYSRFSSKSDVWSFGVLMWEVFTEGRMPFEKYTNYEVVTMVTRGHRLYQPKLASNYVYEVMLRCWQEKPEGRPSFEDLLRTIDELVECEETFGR
Sequence of Mitogen-activated protein kinase 10 (Homo sapiens) (P53779 whole entry): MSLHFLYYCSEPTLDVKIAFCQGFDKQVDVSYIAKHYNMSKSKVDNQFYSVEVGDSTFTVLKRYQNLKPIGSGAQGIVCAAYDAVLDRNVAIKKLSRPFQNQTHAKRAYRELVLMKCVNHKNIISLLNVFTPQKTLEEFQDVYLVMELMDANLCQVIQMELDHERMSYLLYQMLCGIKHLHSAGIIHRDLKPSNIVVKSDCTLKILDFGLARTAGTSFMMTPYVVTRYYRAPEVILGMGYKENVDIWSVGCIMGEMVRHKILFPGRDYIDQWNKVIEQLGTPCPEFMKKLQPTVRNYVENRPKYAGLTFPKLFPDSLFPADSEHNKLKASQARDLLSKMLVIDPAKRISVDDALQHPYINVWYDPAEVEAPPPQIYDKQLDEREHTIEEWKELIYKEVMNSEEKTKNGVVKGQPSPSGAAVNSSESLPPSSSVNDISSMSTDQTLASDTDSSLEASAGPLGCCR

CCCCN(CCCC)C(=O)CN1C[C@H](c2cc(OC)c3c(c2)OCO3)[C@@H](C(=O)O)[C@@H]1CC(C)(C)CCC [ABT-546]
inactive: residual activity [1] 52.5% | residual activity [2] 92.3% | residual activity [3] 85% | residual activity [4] 100% | residual activity [5] 74.8% | residual activity [6] 96.5% | residual activity [7] 65.8% | inhibition [8] 2.64% | residual activity [9] 85.2% | residual activity [10] 76.5% | residual activity [11] 100% | residual activity [12] 100% | residual activity [13] 100% | residual activity [14] 100% | residual activity [15] 55.6% | residual activity [16] 100% | residual activity [17] 50.5% | residual activity [18] 100% | inhibition [19] -5.07% | residual activity [20] 100% | residual activity [21] 100% | residual activity [22] 75.4% | residual activity [23] 100% | residual activity [24] 64.8% | residual activity [25] 89.3% | residual activity [26] 100% | residual activity [27] 100% | residual activity [28] 85.5% | residual activity [29] 100% | residual activity [30] 85.9% | residual activity [31] 100% | residual activity [32] 100% | residual activity [33] 96.1% | residual activity [34] 100% | inhibition [35] -0.591% | residual activity [36] 91.1% | residual activity [37] 100% | residual activity [38] 100% | residual activity [39] 75.8% | residual activity [40] 71.1% | residual activity [41] 71.4% | residual activity [42] 100% | residual activity [43] 100% | residual activity [44] 100% | residual activity [45] 100%

CCCCN(CCCC)C(=O)CN1C[C@@H](c2cc(OC)c3c(c2)OCO3)[C@H](C(=O)O)[C@H]1CC(C)(C)CCC [A-545]
inactive: residual activity [1] 100% | residual activity [2] 79.9% | residual activity [3] 100% | residual activity [4] 100% | residual activity [5] 100% | residual activity [6] 94.8% | residual activity [7] 100% | inhibition [8] -2.98% | residual activity [9] 91.3% | residual activity [10] 90.6% | residual activity [11] 100% | residual activity [12] 84.7% | residual activity [13] 95% | residual activity [14] 92.7% | residual activity [15] 97.4% | residual activity [16] 82.2% | residual activity [17] 87.6% | residual activity [18] 100% | inhibition [19] 43.5% | residual activity [20] 100% | residual activity [21] 100% | residual activity [22] 94.9% | residual activity [23] 99.6% | residual activity [24] 100% | residual activity [25] 100% | residual activity [26] 100% | residual activity [27] 86.8% | residual activity [28] 77.2% | residual activity [29] 100% | residual activity [30] 95.8% | residual activity [31] 82.4% | residual activity [32] 93.3% | residual activity [33] 100% | residual activity [34] 94.4% | inhibition [35] 23% | residual activity [36] 100% | residual activity [37] 100% | residual activity [38] 100% | residual activity [39] 100% | residual activity [40] 95.4% | residual activity [41] 82.9% | residual activity [42] 96.5% | residual activity [43] 100% | residual activity [44] 82.8% | residual activity [45] 81.5%
